Results on 1 substance are retold here after patent US20050102708A1, “Animal model simulating neurologic disease” (priority 2003, published 2005).

Test [1] relates to Long-Evans male rats. The test is described as follows: Morris watermaze memory retention test. It is filed as in vivo, rat. The following applies: four week infusion into the left ventricle, tested at end of perfusion period. The source says: Inducing a Neurologic Disease in a Non-Human Animal. Animals: Long-Evans male rats weighing 300-325 grams were housed following a natural day-night cycle with food and water ad libitum.
Morris watermaze protocol: Before the surgery, the rats were trained on a standard Morris spatial navigation task in a black water tank (200 cm diameter). The water was rendered opaque by water-miscible non-toxic white paint (Crayola Inc.). The rats were placed in four different, randomly assigned, start positions and trained to find an invisible platform (20 cm diameter) at a fixed position in the middle of the water tank. The water temperature was about 24° C. A trial lasted until a rat found the platform or until 120 seconds elapsed. […] Rats were trained for four consecutive days, four trials a day, with 30 minutes between subsequent trials. Surgery procedures were performed on the fifth day. Rats were tested again for memory retention at the end of the four weeks-perfusion period.
Surgical procedure: Anesthetized rats (equitesin, 3 ml/kg, i.p.) were placed on a stereotaxic frame. Using the electrode micromanipulator, the outlet of an osmotic micropump (Durect Corp., Cupertino, Calif.) was implanted into the left ventricle following the coordinates D=3.4 mm, L=1.4 mm and AP=0.92 mm prior to the bregma. […] During the whole procedure, the body temperature was monitored and kept stable at 37° C. […]

Test [2] relates to Hyperphosphorylated Tau protein. As to the kind of experiment: ELISA of hyperphosphorylated Tau protein in CSF. In kind it is in vivo, rat. The following applies: rats, four week infusion into the left ventricle. The protocol:
Surgical procedure: Anesthetized rats (equitesin, 3 ml/kg, i.p.) were placed on a stereotaxic frame. Using the electrode micromanipulator, the outlet of an osmotic micropump (Durect Corp., Cupertino, Calif.) was implanted into the left ventricle following the coordinates D=3.4 mm, L=1.4 mm and AP=0.92 mm prior to the bregma. The tank of the osmotic pump was implanted in a subcutaneous pocket in the midscapular area of the back of the rat. After surgery rats were put on a heating blanket for recovery. During the whole procedure, the body temperature was monitored and kept stable at 37° C.
Perfusion: Rats were divided into six groups regarding the composition of the solution contained in the osmotic micropump tank, as provided in Table 1. Group I served as the control group and received only artificial cerebrospinal fluid (“CSF”).
ELISA: Hyperphosphorylated Tau protein was measured in the CSF using the Elisa kit INNOTEST™ (Innogenetics, Belgium).

With β42-amyloid peptide [Aβ42], the “memory impairment / latency to retrieve the platform in the Morris watermaze test” value in test [1] is “not sufficient to induce memory impairment”. In addition, the “phosphorylated Tau protein in the CSF” value in test [2] is on record as “not sufficient to induce”.
